From PubChem BioAssay (NCI)
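Assay format: 96-well plates, 48-hour exposure. Here, GI50 denotes the concentration required for 50% inhibition of growth. TGI denotes the concentration required for complete inhibition of growth.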

Tests used:
Assay in all cases: DTP human tumour cell line panel, 48 h
HCC-2998 colon = tested on: HCC-2998 colon
ACHN renal = tested on: ACHN renal
PC-3 prostate = tested on: PC-3 prostate
SK-OV-3 ovarian = tested on: SK-OV-3 ovarian
HS 578T breast = tested on: HS 578T breast
SF-268 CNS = tested on: SF-268 CNS
SK-MEL-2 melanoma = tested on: SK-MEL-2 melanoma
NCI-H522 lung = tested on: NCI-H522 lung
A498 renal = tested on: A498 renal
HL-60(TB) leukemia = tested on: HL-60(TB) leukemia
SW-620 colon = tested on: SW-620 colon
OVCAR-8 ovarian = tested on: OVCAR-8 ovarian
SF-295 CNS = tested on: SF-295 CNS
UACC-62 melanoma = tested on: UACC-62 melanoma
SNB-19 CNS = tested on: SNB-19 CNS
HT29 colon = tested on: HT29 colon
HCT-15 colon = tested on: HCT-15 colon
MCF7 breast = tested on: MCF7 breast
EKVX NSCLC = tested on: EKVX NSCLC
UO-31 renal = tested on: UO-31 renal
U251 CNS = tested on: U251 CNS
SR leukemia = tested on: SR leukemia
HOP-62 NSCLC = tested on: HOP-62 NSCLC
M14 melanoma = tested on: M14 melanoma
SN12C renal = tested on: SN12C renal
HOP-92 NSCLC = tested on: HOP-92 NSCLC
OVCAR-5 ovarian = tested on: OVCAR-5 ovarian
MALME-3M melanoma = tested on: MALME-3M melanoma
NCI-H226 lung = tested on: NCI-H226 lung
MOLT-4 leukemia = tested on: MOLT-4 leukemia
SK-MEL-28 melanoma = tested on: SK-MEL-28 melanoma
BT-549 breast = tested on: BT-549 breast
UACC-257 melanoma = tested on: UACC-257 melanoma
RPMI-8226 leukemia = tested on: RPMI-8226 leukemia
CAKI-1 renal = tested on: CAKI-1 renal
COLO 205 colon = tested on: COLO 205 colon
K-562 leukemia = tested on: K-562 leukemia
OVCAR-3 ovarian = tested on: OVCAR-3 ovarian
NCI-H23 lung = tested on: NCI-H23 lung
SNB-75 CNS = tested on: SNB-75 CNS
TK-10 renal = tested on: TK-10 renal
DU-145 prostate = tested on: DU-145 prostate
LOX IMVI melanoma = tested on: LOX IMVI melanoma
NCI-H460 lung = tested on: NCI-H460 lung
IGROV1 ovarian = tested on: IGROV1 ovarian
HCT-116 colon = tested on: HCT-116 colon
KM12 colon = tested on: KM12 colon
SF-539 CNS = tested on: SF-539 CNS
T-47D breast = tested on: T-47D breast
OVCAR-4 ovarian = tested on: OVCAR-4 ovarian
MDA-MB-435 = tested on: MDA-MB-435
MDA-MB-231 breast = tested on: MDA-MB-231 breast
CCRF-CEM leukemia = tested on: CCRF-CEM leukemia
A549 NSCLC = tested on: A549 NSCLC
RXF 393 renal = tested on: RXF 393 renal
786-0 renal = tested on: 786-0 renal
NCI/ADR-RES ovarian = tested on: NCI/ADR-RES ovarian
SK-MEL-5 melanoma = tested on: SK-MEL-5 melanoma

O=C(Nc1ccc(-c2ccnc(Nc3ccc(N4CCOCC4)cc3)n2)cc1)C1CCCN1 (stereo not given)
GI50 (HCC-2998 colon): 11.3 µM | TGI (HCC-2998 colon): 25 µM | GI50 (ACHN renal): 4.27 µM | TGI (ACHN renal): 25.2 µM | GI50 (PC-3 prostate): 1.79 µM | TGI (PC-3 prostate): 31.9 µM | GI50 (SK-OV-3 ovarian): 11.8 µM | TGI (SK-OV-3 ovarian): 32.8 µM | GI50 (HS 578T breast): 3 µM | TGI (HS 578T breast): 24.8 µM | GI50 (SF-268 CNS): 4.9 µM | TGI (SF-268 CNS): 44.8 µM | GI50 (SK-MEL-2 melanoma): 15.2 µM | TGI (SK-MEL-2 melanoma): 35.8 µM | GI50 (NCI-H522 lung): 6.23 µM | TGI (NCI-H522 lung): 21.1 µM | GI50 (A498 renal): 6.4 µM | TGI (A498 renal): 17.9 µM | GI50 (HL-60(TB) leukemia): 4.5 µM | TGI (HL-60(TB) leukemia): 25.5 µM | GI50 (SW-620 colon): 6.14 µM | TGI (SW-620 colon): 25.1 µM | GI50 (OVCAR-8 ovarian): 5.09 µM | TGI (OVCAR-8 ovarian): 28.3 µM | GI50 (SF-295 CNS): 4.18 µM | TGI (SF-295 CNS): 20.4 µM | GI50 (UACC-62 melanoma): 6.63 µM | TGI (UACC-62 melanoma): 20.8 µM | GI50 (SNB-19 CNS): 18 µM | TGI (SNB-19 CNS): 64.7 µM | GI50 (HT29 colon): 3.89 µM | TGI (HT29 colon): 23.3 µM | GI50 (HCT-15 colon): 0.639 µM | TGI (HCT-15 colon): 18.9 µM | GI50 (MCF7 breast): 4.51 µM | TGI (MCF7 breast): 21.4 µM | GI50 (EKVX NSCLC): 12.5 µM | TGI (EKVX NSCLC): 33.7 µM | GI50 (UO-31 renal): 4.06 µM | TGI (UO-31 renal): 24.2 µM | GI50 (U251 CNS): 3.05 µM | TGI (U251 CNS): 21.6 µM | TGI (SR leukemia): > 25.6 µM | GI50 (HOP-62 NSCLC): 5.16 µM | TGI (HOP-62 NSCLC): 27.7 µM | GI50 (M14 melanoma): 7.23 µM | TGI (M14 melanoma): 22.8 µM | GI50 (SN12C renal): 4.47 µM | TGI (SN12C renal): 44 µM | GI50 (HOP-92 NSCLC): 4.1 µM | TGI (HOP-92 NSCLC): 24.4 µM | GI50 (OVCAR-5 ovarian): 14.6 µM | TGI (OVCAR-5 ovarian): 30.7 µM | GI50 (MALME-3M melanoma): 6.71 µM | TGI (MALME-3M melanoma): 23.1 µM | GI50 (NCI-H226 lung): 6.69 µM | TGI (NCI-H226 lung): 52.5 µM | GI50 (MOLT-4 leukemia): 3.04 µM | TGI (MOLT-4 leukemia): 33.2 µM | GI50 (SK-MEL-28 melanoma): 8.95 µM | TGI (SK-MEL-28 melanoma): 22.3 µM | GI50 (BT-549 breast): 8.76 µM | TGI (BT-549 breast): 23 µM | GI50 (UACC-257 melanoma): 8.99 µM | TGI (UACC-257 melanoma): 22.8 µM | GI50 (RPMI-8226 leukemia): 4.61 µM | TGI (RPMI-8226 leukemia): 24.7 µM | GI50 (CAKI-1 renal): 3.29 µM | TGI (CAKI-1 renal): 17.7 µM | GI50 (COLO 205 colon): 5.25 µM | TGI (COLO 205 colon): 20.5 µM | GI50 (K-562 leukemia): 2 µM | TGI (K-562 leukemia): > 53.3 µM | GI50 (OVCAR-3 ovarian): 9.43 µM | TGI (OVCAR-3 ovarian): 27.3 µM | GI50 (NCI-H23 lung): 12.1 µM | TGI (NCI-H23 lung): 32.4 µM | GI50 (SNB-75 CNS): 1.96 µM | TGI (SNB-75 CNS): 12.5 µM | GI50 (TK-10 renal): 9.35 µM | TGI (TK-10 renal): 33.6 µM | GI50 (DU-145 prostate): 7.14 µM | TGI (DU-145 prostate): 37.4 µM | GI50 (LOX IMVI melanoma): 2.27 µM | TGI (LOX IMVI melanoma): 13.9 µM | GI50 (NCI-H460 lung): 1.6 µM | TGI (NCI-H460 lung): 16.4 µM | GI50 (IGROV1 ovarian): 5.16 µM | TGI (IGROV1 ovarian): 25.8 µM | GI50 (HCT-116 colon): 1.43 µM | TGI (HCT-116 colon): 18.5 µM | GI50 (KM12 colon): 7.49 µM | TGI (KM12 colon): 27.3 µM | GI50 (SF-539 CNS): 2.33 µM | TGI (SF-539 CNS): 14.2 µM | GI50 (T-47D breast): 14.7 µM | TGI (T-47D breast): 38.7 µM | GI50 (OVCAR-4 ovarian): 12.2 µM | TGI (OVCAR-4 ovarian): 43.1 µM | GI50 (MDA-MB-435): 6.39 µM | TGI (MDA-MB-435): 21.5 µM | GI50 (MDA-MB-231 breast): 7.77 µM | TGI (MDA-MB-231 breast): 23.1 µM | GI50 (CCRF-CEM leukemia): 2.36 µM | TGI (CCRF-CEM leukemia): 39.9 µM | GI50 (A549 NSCLC): 5.66 µM | TGI (A549 NSCLC): 35.3 µM | GI50 (RXF 393 renal): 2.23 µM | TGI (RXF 393 renal): 9.36 µM | GI50 (786-0 renal): 4.94 µM | TGI (786-0 renal): 20.2 µM | GI50 (NCI/ADR-RES ovarian): 9.49 µM | TGI (NCI/ADR-RES ovarian): 44.5 µM | GI50 (SK-MEL-5 melanoma): 3.31 µM | TGI (SK-MEL-5 melanoma): 18.9 µM
